This is an account of results in ChEMBL document CHEMBL5512605, “Targeted regulated cell death with small molecule compounds in colorectal cancer: Current perspectives of targeted therapy and molecular mechanisms” (Eur J Med Chem, 2024).

One may read the IC50 as the concentration needed to halve the response being measured.

For assay [1], the system named is RKO. Briefly: Antiproliferative activity against human RKO cells assessed as inhibition of cell growth. The format is functional, cell-based.
The subject of assay [2] is SW-620. Briefly: Antiproliferative activity against human SW620 cells assessed as reduction in cell viability. It counts as functional.
Assay [3] relates to SW480. The experiment in a line: Antiproliferative activity against human SW480 cells assessed as reduction in cell viability. The format is functional.
For assay [4], the system named is SW480. Briefly: Cytotoxicity against human SW480 cells assessed as inhibition of cell viability by MTT assay. The format is functional. (In general: Tetrazolium dyes change colour on reduction, which living cells bring about.)
Assay [5] has as its system HT-29. The experiment in a line: Cytotoxicity against human HT-29 cells assessed as inhibition of cell viability by MTT assay. It counts as functional.
Another assay relates to HCT-15. Briefly: Antiproliferative activity against human HCT-15 cells by CCK-8 method. The format is functional.
In assay [6] the test system is HCT-116. The experiment in a line: Antiproliferative activity against human HCT-116 cells by CCK-8 method. It counts as functional.
The subject of assay [7] is RKO. The experiment in a line: Antiproliferative activity against human RKO cells by CCK-8 method. The format is functional.
Assay [8] deals with LoVo. The experiment in a line: Antiproliferative activity against human LoVo cells by CCK-8 method. The format is functional.
In assay [9] the test system is SW-620. Briefly: Antiproliferative activity against human SW620 cells by CCK-8 method. It counts as functional.
Assay [10] can be described thus: Inhibition of NEMO/IKKbeta (unknown origin). Set-up: species or system Homo sapiens.
In assay [11] the test system is HCT-116. Briefly: Cytotoxicity against human HCT-116 cells assessed as inhibition of cell proliferation measured after 72 hrs by SRB method. The format is functional, cell-based.
The test system of the next assay is MC-38. Briefly: Antiproliferative activity against mouse MC38 cells assessed as inhibition of cell growth incubated for 24 hrs by cell-titer glo assay. The format is functional.
The test system of assay [12] is HCT-116. The experiment in a line: Antiproliferative activity against human HCT-116 cells assessed as inhibition of cell growth incubated for 24 hrs by cell-titer glo assay. It counts as functional.
Assay [13] relates to HT-29. Briefly: Antiproliferative activity against human HT-29 cells assessed as inhibition of cell growth incubated for 24 hrs by cell-titer glo assay. It counts as functional.
The subject of assay [14] is LoVo. Briefly: Antiproliferative activity against human LoVo cells assessed as inhibition of cell growth by CellTiter 96 Aqueous One Solution Cell Proliferation Assay. The format is functional, cell-based.
The subject of assay [15] is SW480. The experiment in a line: Antiproliferative activity against human SW480 cells assessed as inhibition of cell growth by CellTiter 96 Aqueous One Solution Cell Proliferation Assay. It counts as functional, cell-based.
Assay [16] deals with SW-620. Briefly: Antiproliferative activity against human SW620 cells assessed as inhibition of cell growth by CellTiter 96 Aqueous One Solution Cell Proliferation Assay. The format is functional, cell-based.
Assay [17] concerns HCT-116. Briefly: Antiproliferative activity against human HCT-116 cells incubated for 72 hrs by CCK-8 method. It counts as functional.
In assay [18] the test system is SW-620. Briefly: Antiproliferative activity against human SW620 cells incubated for 72 hrs by CCK-8 method. The format is functional.
A further assay concerns the target P2X purinoceptor 7 (Homo sapiens, UniProt Q99572). The experiment in a line: Antagonist activity at P2X7R (unknown origin).
The test system of assay [19] is HCT-116. The experiment in a line: Antiproliferative activity against human HCT-116 cells measured after 72 hrs by SRB method. The format is functional, cell-based. To be noted: HCT-116, 72 h. For orientation: In SRB staining, fixed cells bind dye roughly in proportion to their protein.
Assay [20] relates to HT-29. Briefly: Antiproliferative activity against human HT-29 cells measured after 72 hrs by SRB method. It counts as functional, cell-based. The following applies: HT-29, 72 h.
Assay [21] has as its system HT-29. Briefly: Antiproliferative activity against human HT-29 cells. The format is functional.
Assay [22] concerns SW-620. Briefly: Cytotoxicity against human SW620 cells. The format is functional, cell-based.
Assay [23] concerns HCT-116. Briefly: Cytotoxicity against human HCT-116 cells. The format is functional, cell-based.
Assay [24] has as its system SW-620. Briefly: Cytotoxicity against human SW620 cells assessed as inhibition of cell proliferation measured after 48 hrs by MTT assay. To be noted: SW-620, 48 h. The format is functional, cell-based.
The test system of assay [25] is RKO. Briefly: Cytotoxicity against human RKO cells assessed as inhibition of cell proliferation measured after 48 hrs by MTT assay. It counts as functional, cell-based.
The test system of assay [26] is HCT-116. The experiment in a line: Cytotoxicity against human HCT-116 cells assessed as inhibition of cell proliferation measured after 48 hrs by MTT assay. It counts as functional, cell-based. To be noted: HCT-116, 48 h.
Assay [27] deals with HCT-116. The experiment in a line: Antiproliferative activity against human HCT-116 cells assessed as reduction in cell viability measured after 24 hrs by CCK-8 method. The format is functional, cell-based. To be noted: HCT-116, 24 h.
Assay [28] has as its system SW-620. Briefly: Antiproliferative activity against human SW620 cells assessed as reduction in cell viability measured after 24 hrs by CCK-8 method. It counts as functional, cell-based. To be noted: SW-620, 24 h.
The test system of assay [29] is RKO. Briefly: Antiproliferative activity against human RKO cells assessed as inhibition of cell viability measured upto 96 hrs by CCK-8 method. It counts as functional.
In assay [30] the test system is HT-29. The experiment in a line: Antiproliferative activity against human HT-29 cells incubated for 48 hrs by CCK-8 method. It counts as functional, cell-based. The following applies: HT-29, 48 h.
Assay [31] relates to SW-620. The experiment in a line: Antiproliferative activity against human SW620 cells incubated for 48 hrs by CCK-8 method. The format is functional, cell-based. To be noted: SW-620, 48 h.
Assay [32] deals with HT-29. The experiment in a line: Antiproliferative activity against human HT-29 cells assessed as inhibition of cell viability by CellTiter-Glo Luminescent Assay. It counts as functional. Background: Cellular ATP, detected with luciferase, serves as a proxy for viable cell number.
The subject of assay [33] is SW-620. The experiment in a line: Antiproliferative activity against human SW-620 cells assessed as inhibition of cell viability by CellTiter-Glo Luminescent Assay. The format is functional.
Assay [34] deals with LoVo. Briefly: Antiproliferative activity against human LoVo cells assessed as inhibition of cell viability by CellTiter-Glo Luminescent Assay. The format is functional.
Assay [35] concerns HCT-116. The experiment in a line: Antiproliferative activity against human HCT-116 cells assessed as inhibition of cell viability by CellTiter-Glo Luminescent Assay. The format is functional.
Another assay relates to DLD-1. Briefly: Antiproliferative activity against human DLD-1 cells assessed as inhibition of cell viability by CellTiter-Glo Luminescent Assay. The format is functional.

Chain of P2X purinoceptor 7 (Q99572 whole entry): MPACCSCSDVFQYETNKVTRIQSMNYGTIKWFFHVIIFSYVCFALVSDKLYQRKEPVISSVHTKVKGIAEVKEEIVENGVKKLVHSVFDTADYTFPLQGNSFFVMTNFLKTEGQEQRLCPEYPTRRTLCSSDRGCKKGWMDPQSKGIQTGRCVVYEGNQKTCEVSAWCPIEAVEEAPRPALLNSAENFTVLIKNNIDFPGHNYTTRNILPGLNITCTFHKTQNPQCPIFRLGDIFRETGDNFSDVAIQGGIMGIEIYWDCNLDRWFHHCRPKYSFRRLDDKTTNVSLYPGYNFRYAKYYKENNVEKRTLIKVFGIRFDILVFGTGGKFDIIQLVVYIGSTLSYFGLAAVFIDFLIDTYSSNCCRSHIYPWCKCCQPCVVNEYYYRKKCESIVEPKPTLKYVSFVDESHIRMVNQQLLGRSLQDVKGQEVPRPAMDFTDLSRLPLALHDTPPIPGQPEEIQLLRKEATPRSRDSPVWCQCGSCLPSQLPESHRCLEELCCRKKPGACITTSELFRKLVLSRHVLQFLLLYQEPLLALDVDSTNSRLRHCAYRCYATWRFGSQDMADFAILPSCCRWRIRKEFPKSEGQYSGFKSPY

Consider `COc1cc(-c2[o+]c3cc(O)cc(O[C@@H]4O[C@H](CO)[C@@H](O)[C@H](O)[C@H]4O)c3cc2O[C@@H]2O[C@H](CO[C@@H]3O[C@@H](C)[C@H](OC(=O)/C=C/c4ccc(O)cc4)C[C@H]3O)[C@@H](O)[C@H](O)[C@H]2O)cc(O)c1O`, for which the concentration for half-maximal inhibition (IC50) in the assay on RKO [1] came to 172 µM.

In the case of `C[C@H]1O[C@@H](O[C@H]2[C@@H](O)C[C@H](O[C@H]3[C@@H](O)C[C@H](O[C@H]4CC[C@@]5(C)[C@H](CC[C@@H]6[C@@H]5CC[C@]5(C)[C@@H](C7=CC(=O)OC7)CC[C@]65O)C4)O[C@@H]3C)O[C@@H]2C)C[C@H](O)[C@@H]1O` [DIGITOXIN], the IC in the assay on SW-620 [2] and with SW480 [3] was 200 nM throughout.

Turning to `CC[C@@]1(O)C(=O)OCc2c1cc1n(c2=O)Cc2cc3cc4c(cc3nc2-1)OCO4`, the IC in the assay with SW480 [4] and in the assay with HT-29 [5] was 0 nM in each case.

For the compound `CC(C)=CC[C@@H](O)C1=CC(=O)c2c(O)ccc(O)c2C1=O` [SHIKONIN], the IC with HCT-15, in the assay with HCT-116 [6], with RKO [7], in the assay on LoVo [8] and in the assay with SW-620 [9] was 0.5 µM throughout. Half-maximal inhibition in assay [10] (IC50) was put at 0.17 µM.

For `C/C=C\C(=O)O[C@@H]1C[C@H]2O[C@@H]3C=C(C)C(=O)C[C@]3(C)[C@]1(C)[C@]21CO1` [TRICHOTHECIN], the IC50 with HCT-116 [11] worked out at 0.25 µM.

Take `O=C(NC1CCN(CCCCC2(C(=O)NCC(F)(F)F)c3ccccc3-c3ccccc32)CC1)c1ccccc1-c1ccc(C(F)(F)F)cc1` [LOMITAPIDE]: the IC in the assay with MC-38, in the assay on HCT-116 [12] and with HT-29 [13] was 10 µM each time.

For the compound `CC(C)=CCc1cc(-c2coc3cc(O)c(CC=C(C)C)c(O)c3c2=O)cc(O)c1O`, the IC50 came out at 7.05 µM in the assay on LoVo [14], 6.97 µM in the assay with SW480 [15] and 7.33 µM with SW-620 [16].

Regarding `Clc1cccc(-c2nnnn2Cc2cccnc2)c1Cl`, the IC in the assay with HCT-116 [17] and with SW-620 [18] was 10 µM each time. The same compound had an IC50 on P2X purinoceptor 7 of 0.13 µM.

Consider `O=C(Nc1ccc([N+](=O)[O-])cc1Cl)c1cc(Cl)ccc1O` [NICLOSAMIDE], for which the concentration for half-maximal inhibition (IC50) in the assay with HCT-116 [19] was determined as 0.32 µM; in the assay with HT-29 [20], 4.66 µM.

Regarding `CC(C)[C@@H]1C[C@@H](O)[C@H]2[C@@]1(C)CC[C@@]1(C)[C@H]3C(=CC[C@]21C)[C@@]1(C)CC[C@H](O)C(C)(C)[C@@H]1C[C@@H]3O` [RUBIARBONOL B], the IC in the assay on HT-29 [21], in the assay with SW-620 [22] and in the assay on HCT-116 [23] was 10 µM each time.

Take `CC(=O)O[C@H]1[C@H]2O[C@]23[C@@H]2CC[C@@H]4C[C@@H](O)CC[C@]4(C)[C@H]2CC[C@]3(C)[C@H]1c1ccc(=O)oc1` [CINOBUFAGIN]: the IC50 with SW-620 [24] was 0.364 µM; in the assay on RKO [25] it was 0.182 µM; in the assay on HCT-116 [26], 0.782 µM.

On to `CCC(C)/C=C(\C)[C@H]1C(C)=C[C@@]2(C)C[C@@H](C)CC[C@@H]2[C@H]1C(=O)C1=C/C(=C/c2ccc(O)cc2)NC1=O` (some centres undefined) [TALAROCONVOLUTIN A], for which the values for the IC50 in the assay on HCT-116 [27] and in the assay with SW-620 [28] were 9.23 µM and 5.82 µM, respectively.

For the compound `CCN(CC)C(=S)SSC(=S)N(CC)CC` [DISULFIRAM], the IC with RKO [29] was found to be 0.1 µM.

Consider `CC(C)c1onc(-c2c(Cl)cccc2Cl)c1COc1ccc(/C=C/c2cccc(C(=O)O)c2)c(Cl)c1`, for which the IC50 in the assay with HT-29 [30] was 13.8 µM; with SW-620 [31] it was 7.6 µM.

For `C[C@@H]1CN(CC(=O)N2CC(C)(C)c3nc(CO)c(Cc4ccc(F)cc4)cc32)[C@@H](CN2CCOC[C@H]2C)CN1` [ASTX-660], the IC in the assay on HT-29 [32], in the assay with SW-620 [33], with LoVo [34], in the assay on HCT-116 [35] and in the assay with DLD-1 was 0.5 nM each time.
